Results from paper PMC5704756, “Hydrolysis, polarity, and conformational impact of C-terminal partially fluorinated ethyl esters in peptide models” (Beilstein Journal of Organic Chemistry, 2017).
Several values for one entry are separate records, joined by “and”; a condition that tells them apart may be missing. Identical values can stand only once. Like-named read-outs stand apart in the source and are kept apart here. Peptide text beside a SMILES is read from it. * marks the point of attachment. X1 = FC(F)CO*

How the values were obtained:
Assay type in all cases: physicochemical
[1] = Hydrolysis of C-terminal 2,2-difluoroethyl esters of oligopeptides in buffered deuterium oxide by 19F NMR; conditions: for τ½ of ester hydrolysis (value outside brackets) / τ½ of ester hydrolysis (value in brackets, alternative kinetic model): buffered deuterium oxide, pH 7.0, 298 K; for τ½ of ester hydrolysis (value outside brackets): Equation 7 (zero order), first (zero) order model; for τ½ of ester hydrolysis (value in brackets, alternative kinetic model): first (zero) order kinetic model; for charge-induced hydrolysis acceleration factor vs 8b: pH 7, 9b, 10b vs 8b
From the text: Finally, we tested hydrolytic stability in esterified peptides 8b, 9b and 10b by observing hydrolysis of the ester using ^19F NMR in buffered deuterium oxide (pH 7). We expected pseudo-first order kinetics as for the hydrolysis of esters 1–5 at pH 11. Nonetheless, for the peptide esters 8b, 9b and 10b, the experimental decay (Figure 7) of the ester concentration resembled pseudo-zero order kinetics, which was also observed for another amino acid ester hydrolysis not shown here.
Circular dichroism spectra were recorded in a 1 mm quartz cell at 298 K in methanol (HPLC grade) or aqueous potassium phosphate buffer (50 mM, pH 7.01 at 297 K). The peptide concentration was 100 μM as determined gravimetrically. The mean residue absorption difference Δε was calculated assuming 6 residues for peptides 8a–c, 10a–c and 3 residues for peptides 9a–c. Hydrolysis was measured in deuterium oxide solution of a 150 mM potassium phosphate buffer. The buffer pH 7.01 was adjusted in water at 298 K. It was then lyophilized, then dissolved in deuterium oxide. The peptides were dissolved in the buffer, and the resulting samples were kept at 298 ± 2 K, while the ^19F NMR measurements were conducted at several time points. The starting concentrations of the analytes were 8 mM for 8b, 5 mM for 9b and 2.5 mM for 10b. The half-life was calculated using the first (zero) order kinetic model.

[2] = Amide rotational thermodynamics and kinetics (trans/cis isomerism) by NMR / EXSY; conditions: for Ktrans/cis in C6D6: C6D6 (ε 2.27); for Ktrans/cis in C6D6 / Ktrans/cis in CD2Cl2 / Ktrans/cis in CD3CN / Ktrans/cis in CD3OD / Ktrans/cis in CDCl3 / Ktrans/cis in D2O: 298 K; for Ktrans/cis in C6D6 / Ktrans/cis in D2O: analyte 50 ± 10 mM; for k∙10^3 cis→trans in C6D6 / k∙10^3 trans→cis in C6D6: C6D6, 298 K; for k∙10^3 cis→trans in C6D6 / k∙10^3 trans→cis in C6D6 / k∙10^3 cis→trans in D2O / k∙10^3 trans→cis in D2O: EXSY NMR, amide rotation, value is k∙10^3; for Ktrans/cis in CD2Cl2: CD2Cl2 (ε 8.93); for Ktrans/cis in CD3OD: CD3OD (ε 32.7); for Ktrans/cis in CDCl3: CDCl3 (ε 4.81); for Ktrans/cis in D2O: D2O (ε 80.1), 1H/19F NMR; for k∙10^3 cis→trans in D2O / k∙10^3 trans→cis in D2O: 310 K
From the text: For 1–5, we found the trans/cis ratios ≈ 5 for all five esters when measured in aqueous medium; the kinetic parameters of the amide rotation were also nearly identical (Table 2). We then noticed that the trans/cis ratios measured for the fluorine-labeled esters 3–5 in nonpolar solvents (such as benzene) were systematically higher relative to the reference compounds 1 and 2. We tested the relative increase in the trans-amide preference ΔΔG as a function of solvent (Equation 4) and found a dependence of this parameter on the dielectric constant, as would be expected from an electrostatic interaction between the polar alkoxy group and the amide moiety (Figure 4).
The amide rotational thermodynamic and kinetic measurements were performed by NMR as described in [50, 68]. The equilibrium ratio between the rotameric states was obtained from the ^1H, ^19F and ^19F{^1H} (inverse-gated decoupling) spectra at 298 K by integration. The kinetics was measured in ^1H and/or ^19F{^1H} z-cross-relaxation experiments at either 310 K (for deuterium oxide samples) or 298 K (for benzene samples). The Jαβ-coupling values were obtained by visual inspection of the α-CH resonances in the ^1H NMR spectra, and the accuracy was defined by the length of the time domain spectrum at approximately 0.3 Hz. The semi-empirical calculations were performed by using the PM6 algorithm from the MOPAC package. DFT geometry optimization of the 5 amide rotamers was performed using B88-PW91 GGA with the DZVP basis set.

[3] = Hydrolytic stability of esters 1–5 in aqueous potassium phosphate buffer, monitored by 1H and 19F NMR; conditions: for τ½, min (aq buffer): ester hydrolysis; for half-life at 0.5 mM: aqueous potassium phosphate buffer
From the text: The kinetic stability of the ester linkage in the aqueous medium is of critical importance, as it further defines the time window for the reactions with the corresponding esters under the biologically relevant conditions of aqueous buffers. Hydrolysis of the C-terminal esters has been fairly well described in the literature, indicating the hydrolysis occurs via a pseudo-first order reaction in a buffered medium assuming that [HO^−] is constant (Equations 1–3): […]
Next, we determined the half-life values following the above mentioned kinetic model for esters 1–5 in aqueous medium at pH 11 and 298 K (Figure 2). […] For the subsequent fluorine atoms, the hydrolysis rate increased by a factor of 3–4 for each appended fluorine atom. […] Extrapolation to pH 8.0 gives a value of 107 ± 28 hours. (This procedure requires multiplication by 1000.) We experimentally determined the half-life of 5 at pH 8 to be 102 ± 2 hours, which agrees well with the extrapolation. The mutual consistency of the values determined with different kinetic modes (minutes at pH 11, days at pH 8) provides a good indication of their accuracy.
Aqueous potassium phosphate buffer (100 mM) at pH 11.0 or 8.0 was mixed with 1:10 (v/v) deuterium oxide to give 550 μL of 91 mM buffer. The analyte 1–5 was added from a 200 mM stock solution in deuterium oxide to give 0.5 mM analyte. The first NMR spectra were collected within 4 min following addition of the analyte. The monitoring was continued by recording ^1H and ^19F NMR spectra at regular time points until >50% hydrolysis. Ambient temperature was maintained at 298 ± 1 K. The decay of the integral intensity of the analyte was quantified by integration. Plotting the logarithm of the intensity versus time delivered the kinetic constant, which was converted to the half-life time (squared correlation coefficient > 0.90). The experiments were performed in triplicate.

[4] = Partitioning between octan-1-ol and water (NMR detection); conditions: for logP at 24 h: 298 K, 24 hours partitioning, NMR; for ΔlogP vs 4: relative to compound 4
Protocol: To characterize the lipophilicity, esters 1–5 were subjected to 24 hours of partitioning between octan-1-ol and water at 298 K. The resulting partition is illustrated in Figure 3. […] The lipophilicity of 2,2-difluoroethyl derivative 4 is nearly identical to that of parent ethyl ester 2, and the relative difference in the logP from the increase (5 vs 4, ΔlogP = +0.53 ± 0.13) and decrease (3 vs 4, ΔlogP = −0.45 ± 0.13) in the number of fluorine atoms are equivalent to one methyl group difference (2 vs 1, ΔlogP = +0.44 ± 0.08). The amplitude of the change is similar to that reported recently for the corresponding fluorinated ethanols. Importantly, C-terminal esterification maintains a much higher lipophilicity compared with the C-terminal amide 7 (Table 1).
To 4–5 mg analyte, octan-1-ol (1.00 mL) and deionized water (1.00 mL) were added. The mixture was shaken gently at ambient temperature (298 ± 2 K) for 24 hours. Each phase (200 μL) was sampled using identical NMR tubes, and acetonitrile-d3 (300 μL) was added to each sample. The NMR measurements were performed by ^1H or ^19F detection at 298 K using calibrated 90-degree pulses and one-scan experiments in order to ensure complete pre-relaxation. The same acquisition parameters were used for the octan-1-ol and water samples; for processing, only the zero phase was adjusted. The spectra were baseline corrected, and equivalent resonances were integrated. The ratio between the signal intensities was considered as the partitioning constant. The partitioning experiments were performed in triplicate. Subsequent addition of water and octan-1-ol was performed in forward and reverse manner, and the resulting partitioning constants were identical within experimental error.

[5] = pH 11.0, 298 K, pseudo-first order

| SMILES | τ½ of ester hydrolysis (value in brackets, alternative kinetic model) [1] | Ktrans/cis in C6D6 [2] | k∙10^3 cis→trans in C6D6 [2] | k∙10^3 trans→cis in C6D6 [2] | Ktrans/cis in CD2Cl2 [2] | Ktrans/cis in CD3CN [2] | Ktrans/cis in CD3OD [2] | Ktrans/cis in CDCl3 [2] | Ktrans/cis in D2O [2] | k∙10^3 cis→trans in D2O [2] | k∙10^3 trans→cis in D2O [2] | τ½, min (aq buffer) [3, 5] | logP at 24 h ([4]; octan-1-ol/water) | also measured |
| --- | --- | --- | --- | --- | --- | --- | --- | --- | --- | --- | --- | --- | --- | --- |
| CC(=O)N[C@@H](CCCCN)C(=O)N[C@@H](CCCCN)C(=O)N[C@@H](CCCCN)C(=O)OCC(F)F [peptide 9b, Ac(Lys)3OCH2CHF2∙3HCl] | 4.5 ± 0.5 days |  |  |  |  |  |  |  |  |  |  |  |  | τ½ of ester hydrolysis (value outside brackets) [1]: 5.0 ± 0.3 days and 5.0 ± 0.5 days; charge-induced hydrolysis acceleration factor vs 8b [1]: ≈ 30 |
| CC(=O)N1CCC[C@H]1C(=O)OCCF [compound 3, 2-Fluoroethyl N-acetylprolinate] |  | 6.80 ± 0.04 | 348 ± 11 s^−1 | 52 ± 2 s^−1 | 4.77±0.10 | 4.12±0.17 | 3.61±0.03 | 4.44±0.20 | 4.74 ± 0.04 | 30 ± 2 s^−1 | 7 ± 1 s^−1 | 80 ± 14 (pH 11.0) min |  | logP at 24 h [4]: -0.43 ± 0.07; ΔlogP vs 4 ([4]; octan-1-ol/water): −0.45 ± 0.13 |
| CCOC(=O)C1CCCN1C(C)=O (stereo not drawn) [compound 2, Ethyl N-acetylprolinate] |  | 4.67 ± 0.03 | 309 ± 14 s^−1 | 67 ± 2 s^−1 | 3.52±0.03 | 3.58±0.04 | 3.49±0.04 | 3.20±0.04 | 4.60 ± 0.08 | 20 ± 5 s^−1 | 6 ± 1 s^−1 | 603 ± 58 (pH 11.0) min | 0 | ΔlogP vs 1 ([4]; octan-1-ol/water, relative to compound 1): +0.44 ± 0.08 |
| CC(=O)N1CCC[C@H]1C(=O)N1CCC[C@H]1C(=O)N1CCC[C@H]1C(=O)N1CCC[C@H]1C(=O)N1CCC[C@H]1C(=O)N1CCC[C@H]1C(=O)OCC(F)F [peptide 8b, Ac(Pro)6OCH2CHF2] (Ac-PPPPPP-X1) | 139 ± 20 days |  |  |  |  |  |  |  |  |  |  |  |  |  |
| CC(=O)N1CCC[C@H]1C(=O)OCC(F)F [compound 4, 2,2-Difluoroethyl N-acetylprolinate] |  | 9.06 ± 0.26 | 430 ± 17 s^−1 | 47 ± 2 s^−1 | 6.57±0.14 | 4.85±0.07 | 4.12±0.03 | 6.29±0.22 | 4.95 ± 0.05 | 32 ± 4 s^−1 | 7 ± 1 s^−1 | 19.7 ± 2.5 (pH 11.0) min | 0.02 | half-life at 0.5 mM ([3]; pH 7, extrapolated from pH 11 value, read-out: half-life extrapolated to pH 7.0 (converted)): 3290 h |
| CC(=O)N1CCC[C@H]1C(=O)OCC(F)(F)F [compound 5, 2,2,2-Trifluoroethyl N-acetylprolinate] |  | 10.04 ± 0.15 | 477 ± 13 s^−1 | 48 ± 2 s^−1 | 7.07±0.11 | 5.65±0.05 | 4.49±0.05 | 6.65±0.18 | 5.48 ± 0.14 | 35 ± 5 s^−1 | 6 ± 1 s^−1 | 6.4 ± 1.7 min | 0.55 | half-life at 0.5 mM ([3]; pH 8, extrapolated from pH 11 value (multiplication by 1000), read-out: half-life, extrapolation to pH 8.0 (converted)): 107 ± 28 h; half-life at 0.5 mM ([3]; pH 8, pH 8, 298 K, read-out: half-life at pH 8, experimentally determined (converted)): 102 ± 2 h; τ½, min (aq buffer) ([3]; pH 8.0, 298 K): 6112 ± 70 min; ΔlogP vs 4 ([4]; octan-1-ol/water): +0.53 ± 0.13 |
| CC(=O)N1CCC[C@H]1C(N)=O [compound 7, reference compound] |  |  |  |  |  |  |  |  |  |  |  |  | -1.57 ± 0.1 |  |
| CC(=O)N[C@@H](CCCCN)C(=O)N[C@@H](CCCCN)C(=O)N[C@@H](CCCCN)C(=O)N[C@@H](CCCCN)C(=O)N[C@@H](CCCCN)C(=O)N[C@@H](CCCCN)C(=O)OCC(F)F [peptide 10b, Ac(Lys)6OCH2CHF2∙6HCl] | 3.7 ± 0.3 days |  |  |  |  |  |  |  |  |  |  |  |  | τ½ of ester hydrolysis (value outside brackets) [1]: 4.0 ± 0.3 days; charge-induced hydrolysis acceleration factor vs 8b [1]: ≈ 30 |
